Activity calls are given as the source filed them.
What was measured:
[1] = tested on: Streptococcus sp. 'group A'; assay: growth inhibition of control SK(-) GAS strain, dose response, counter-screen for streptokinase expression inhibitor project, luminescence, kanamycin, BacTiterGlo, confirmation (AID 1900); type: functional, organism-based
Streptokinase A = biological target: T1, Streptokinase A (Streptococcus pyogenes serotype M1, UniProt P10520); assay: S. pyogenes streptokinase expression inhibitors, potency, dose response, plasminogen activation absorbance, OD405 (AID 1914); type: functional, Streptococcus pyogenes M1 GAS;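 note: secreted streptokinase activity via plasminogen activation per viability signal from cell pellet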
T1 sequence (P10520 whole entry): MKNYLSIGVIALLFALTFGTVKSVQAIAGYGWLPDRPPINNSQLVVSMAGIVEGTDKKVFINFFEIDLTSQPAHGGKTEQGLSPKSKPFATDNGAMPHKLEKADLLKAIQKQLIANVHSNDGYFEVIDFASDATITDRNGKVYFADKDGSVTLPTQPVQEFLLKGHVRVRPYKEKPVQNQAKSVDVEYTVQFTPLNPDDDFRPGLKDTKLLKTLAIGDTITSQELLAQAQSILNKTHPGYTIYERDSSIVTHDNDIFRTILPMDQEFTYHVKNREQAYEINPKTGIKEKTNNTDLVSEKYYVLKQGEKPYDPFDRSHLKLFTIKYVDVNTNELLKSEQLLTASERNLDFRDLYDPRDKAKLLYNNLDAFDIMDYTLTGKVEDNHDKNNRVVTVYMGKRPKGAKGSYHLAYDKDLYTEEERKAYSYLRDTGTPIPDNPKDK

Streptococcus = assay: Group A Streptococcus viability loss, dose response, counter-screen for streptokinase expression inhibitor project, luminescence, BacTiterGlo (AID 1915); type: functional, organism-based;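 note: potency for reduction of bacterial viability or growth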
[2] = biological target: T2, Short transient receptor potential channel 4 (Mus musculus, UniProt Q9QUQ5); assay: mouse TRPC4 channel inhibitors, dose response, cell-based, HEK293 TRPC4/mu-opioid, Fluo-4 calcium (AID 434942); type: functional;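 note: potency of inhibitors blocking the TRPC4 calcium response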
T2 sequence (Q9QUQ5 whole entry): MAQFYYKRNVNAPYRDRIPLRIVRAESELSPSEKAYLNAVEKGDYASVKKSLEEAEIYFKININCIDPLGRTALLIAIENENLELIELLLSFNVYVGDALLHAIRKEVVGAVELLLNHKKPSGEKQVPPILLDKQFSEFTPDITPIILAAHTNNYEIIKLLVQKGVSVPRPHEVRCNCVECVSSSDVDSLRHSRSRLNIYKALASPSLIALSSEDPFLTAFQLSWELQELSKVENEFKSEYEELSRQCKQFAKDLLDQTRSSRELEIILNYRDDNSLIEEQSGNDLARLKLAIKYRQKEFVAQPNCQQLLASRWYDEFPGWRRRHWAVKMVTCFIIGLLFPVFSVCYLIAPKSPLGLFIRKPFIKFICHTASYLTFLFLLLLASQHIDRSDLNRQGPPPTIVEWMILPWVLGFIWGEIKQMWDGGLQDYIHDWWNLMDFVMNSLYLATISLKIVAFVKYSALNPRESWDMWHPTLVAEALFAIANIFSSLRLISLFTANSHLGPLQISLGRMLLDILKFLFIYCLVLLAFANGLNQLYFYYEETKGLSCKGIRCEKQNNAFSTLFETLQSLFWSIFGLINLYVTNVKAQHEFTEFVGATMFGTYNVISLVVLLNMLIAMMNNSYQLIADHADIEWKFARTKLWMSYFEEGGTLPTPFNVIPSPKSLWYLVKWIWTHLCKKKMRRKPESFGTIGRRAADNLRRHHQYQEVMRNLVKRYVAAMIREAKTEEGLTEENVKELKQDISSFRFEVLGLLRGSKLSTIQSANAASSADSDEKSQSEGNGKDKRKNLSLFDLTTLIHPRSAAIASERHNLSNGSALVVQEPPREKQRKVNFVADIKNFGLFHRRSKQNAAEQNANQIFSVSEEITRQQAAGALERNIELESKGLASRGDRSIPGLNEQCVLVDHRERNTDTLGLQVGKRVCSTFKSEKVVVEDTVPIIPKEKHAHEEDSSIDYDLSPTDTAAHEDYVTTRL

Nonstructural protein 1 = Nonstructural protein 1 (Influenza A virus, UniProt Q194T2); type: functional, Influenza A virus (A/California/07/2009(H1N1))
Nonstructural protein 1, sequence (Q194T2 whole entry): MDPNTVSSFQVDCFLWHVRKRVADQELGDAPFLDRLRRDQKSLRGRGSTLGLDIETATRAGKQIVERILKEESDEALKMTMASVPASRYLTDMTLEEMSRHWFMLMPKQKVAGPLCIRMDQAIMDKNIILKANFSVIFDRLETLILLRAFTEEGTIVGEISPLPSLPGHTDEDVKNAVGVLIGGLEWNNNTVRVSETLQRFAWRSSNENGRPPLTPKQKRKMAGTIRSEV

INS1 = assay: beta cell apoptosis inhibitors, cytokine rescue, dose response, luminescence, retest (AID 449756); type: functional, cell-based; settings: Rattus norvegicus;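 note: cell death triggered by IL-1 beta plus TNF-alpha plus IFN-gamma mixture; protective hits raise ATP signal compared with cytokine alone wells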
[3] = Artemis endonuclease inhibitor potency, dose response, biochemical, fluorescence intensity (AID 720701); type: functional;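 note: Artemis endonuclease enzyme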
[4] = biological target: Voltage-dependent T-type calcium channel subunit alpha-1H (Homo sapiens, UniProt O95180); type: functional;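 note: channel activity triggered by adding a high calcium stimulation buffer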
[5] = Shn3 3'UTR reporter inhibitors, dose response, cell-based, Clone20 osteoblasts, firefly luciferase, cherry-picked (AID 624132); type: functional;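 note: firefly luciferase luminescence from reporter carrying the Shn3 3'UTR in osteoblasts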
[6] = reduction of Shn3 3'UTR firefly luciferase signal, dose response, Schnurri-3 inhibitor project, cell-based, Clone20 osteoblasts, cherry-pick, set 2 (AID 720490); type: functional;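 note: actives lower the luminescence signal as inhibitors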
[7] = biological target: 1-phosphatidylinositol 4,5-bisphosphate phosphodiesterase gamma-1 (Homo sapiens, UniProt P19174); assay: Counterscreen for inhibitors of phospholipase C isozymes (PLC-B3): Fluorescence-based biochemical high throughput dose response assay to identify inhibitors of phospholipase C isozymes (PLC-gamma1).
1-phosphatidylinositol 4,5-bisphosphate phosphodiesterase gamma-1, sequence (P19174 whole entry): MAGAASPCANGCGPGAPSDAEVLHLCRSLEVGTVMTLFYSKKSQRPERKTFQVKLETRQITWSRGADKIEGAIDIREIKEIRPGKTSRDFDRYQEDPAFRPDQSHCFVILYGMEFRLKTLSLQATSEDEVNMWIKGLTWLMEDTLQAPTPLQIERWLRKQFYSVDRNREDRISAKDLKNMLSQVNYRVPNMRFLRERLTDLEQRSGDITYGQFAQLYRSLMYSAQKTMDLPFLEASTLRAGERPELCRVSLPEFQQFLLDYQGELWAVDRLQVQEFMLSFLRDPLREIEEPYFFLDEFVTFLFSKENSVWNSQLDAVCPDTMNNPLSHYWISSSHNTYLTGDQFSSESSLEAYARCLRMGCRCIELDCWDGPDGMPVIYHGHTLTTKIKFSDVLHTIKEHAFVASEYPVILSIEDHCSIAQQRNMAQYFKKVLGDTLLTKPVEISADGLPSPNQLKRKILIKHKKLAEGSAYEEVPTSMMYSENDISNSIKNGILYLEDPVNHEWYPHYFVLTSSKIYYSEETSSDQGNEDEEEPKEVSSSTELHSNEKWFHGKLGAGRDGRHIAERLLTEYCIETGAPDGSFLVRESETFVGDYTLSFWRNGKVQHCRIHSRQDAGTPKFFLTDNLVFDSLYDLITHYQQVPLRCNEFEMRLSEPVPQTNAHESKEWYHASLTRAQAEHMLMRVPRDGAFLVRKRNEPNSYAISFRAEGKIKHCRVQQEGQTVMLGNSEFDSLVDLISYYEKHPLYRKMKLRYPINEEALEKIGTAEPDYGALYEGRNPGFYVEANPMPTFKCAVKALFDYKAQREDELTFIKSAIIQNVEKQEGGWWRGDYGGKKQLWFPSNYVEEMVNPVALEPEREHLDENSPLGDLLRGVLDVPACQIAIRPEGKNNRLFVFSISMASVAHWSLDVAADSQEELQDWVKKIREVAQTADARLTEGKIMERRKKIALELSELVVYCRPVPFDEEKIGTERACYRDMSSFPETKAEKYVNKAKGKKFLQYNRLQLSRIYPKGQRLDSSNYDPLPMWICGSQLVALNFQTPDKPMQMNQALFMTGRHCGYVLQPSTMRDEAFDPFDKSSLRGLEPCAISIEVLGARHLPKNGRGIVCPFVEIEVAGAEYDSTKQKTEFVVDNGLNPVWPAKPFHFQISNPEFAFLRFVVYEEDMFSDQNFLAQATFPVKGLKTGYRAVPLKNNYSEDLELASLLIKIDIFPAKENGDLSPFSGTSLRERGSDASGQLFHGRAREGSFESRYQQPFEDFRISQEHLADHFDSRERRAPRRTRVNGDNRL

[8] = biological target: 1-phosphatidylinositol 4,5-bisphosphate phosphodiesterase beta-3 (Homo sapiens, UniProt Q01970); assay: Fluorescence-based biochemical high throughput dose response assay to identify inhibitors of phospholipase C isozymes (PLC-B3).
1-phosphatidylinositol 4,5-bisphosphate phosphodiesterase beta-3, sequence (Q01970 whole entry): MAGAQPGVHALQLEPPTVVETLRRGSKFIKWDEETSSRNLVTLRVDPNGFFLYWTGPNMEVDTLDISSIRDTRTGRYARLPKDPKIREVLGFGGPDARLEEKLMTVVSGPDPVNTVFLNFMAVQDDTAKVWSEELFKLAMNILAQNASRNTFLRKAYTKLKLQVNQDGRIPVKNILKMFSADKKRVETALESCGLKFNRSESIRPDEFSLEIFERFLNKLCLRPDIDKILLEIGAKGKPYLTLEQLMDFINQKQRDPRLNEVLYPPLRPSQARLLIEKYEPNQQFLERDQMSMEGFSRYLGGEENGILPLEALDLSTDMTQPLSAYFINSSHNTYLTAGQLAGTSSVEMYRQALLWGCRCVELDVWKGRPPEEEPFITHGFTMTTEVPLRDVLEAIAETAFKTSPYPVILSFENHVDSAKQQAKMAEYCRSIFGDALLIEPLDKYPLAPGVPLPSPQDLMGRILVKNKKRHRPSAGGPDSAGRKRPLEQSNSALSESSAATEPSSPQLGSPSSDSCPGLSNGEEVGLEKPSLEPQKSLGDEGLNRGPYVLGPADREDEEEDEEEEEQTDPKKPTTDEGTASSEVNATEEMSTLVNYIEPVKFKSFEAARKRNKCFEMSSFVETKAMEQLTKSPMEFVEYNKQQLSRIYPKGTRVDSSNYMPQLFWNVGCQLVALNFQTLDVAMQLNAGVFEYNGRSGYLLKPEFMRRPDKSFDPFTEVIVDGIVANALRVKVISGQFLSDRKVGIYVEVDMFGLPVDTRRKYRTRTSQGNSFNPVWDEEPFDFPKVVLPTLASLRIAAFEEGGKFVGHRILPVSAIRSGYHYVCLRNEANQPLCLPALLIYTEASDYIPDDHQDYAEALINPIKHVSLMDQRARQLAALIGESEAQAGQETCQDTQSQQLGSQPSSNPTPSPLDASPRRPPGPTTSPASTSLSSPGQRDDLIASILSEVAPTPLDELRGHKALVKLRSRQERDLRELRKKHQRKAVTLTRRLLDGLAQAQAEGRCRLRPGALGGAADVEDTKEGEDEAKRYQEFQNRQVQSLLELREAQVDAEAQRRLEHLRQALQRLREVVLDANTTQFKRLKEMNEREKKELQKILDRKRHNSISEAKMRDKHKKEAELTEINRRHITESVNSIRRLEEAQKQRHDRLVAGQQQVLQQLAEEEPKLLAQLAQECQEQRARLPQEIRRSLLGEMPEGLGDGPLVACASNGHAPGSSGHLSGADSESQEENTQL

Paired box protein Pax-8 = Paired box protein Pax-8 (Homo sapiens, UniProt Q06710); assay: inhibitors of PAX8-driven TPO luciferase reporter, dose response, RMG-I cells, cherry-pick (AID 687027); type: functional, cell-based;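 note: luciferase reporter driven by Pax8 target thyroperoxidase promoter measured by SteadyGlo luminescence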
Paired box protein Pax-8, sequence (Q06710 whole entry): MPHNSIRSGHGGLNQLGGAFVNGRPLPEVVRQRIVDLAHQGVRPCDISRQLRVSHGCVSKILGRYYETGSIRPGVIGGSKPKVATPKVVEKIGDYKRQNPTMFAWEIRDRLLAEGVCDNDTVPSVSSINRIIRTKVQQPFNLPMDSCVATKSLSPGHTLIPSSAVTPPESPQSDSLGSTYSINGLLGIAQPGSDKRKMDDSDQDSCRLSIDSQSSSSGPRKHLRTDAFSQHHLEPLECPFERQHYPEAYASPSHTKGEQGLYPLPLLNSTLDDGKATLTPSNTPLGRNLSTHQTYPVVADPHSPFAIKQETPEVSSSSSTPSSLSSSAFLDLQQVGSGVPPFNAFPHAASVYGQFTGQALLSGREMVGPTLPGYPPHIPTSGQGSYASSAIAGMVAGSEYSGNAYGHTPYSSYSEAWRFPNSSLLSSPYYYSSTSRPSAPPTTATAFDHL

[9] = A2780 ovarian cancer cell cytotoxicity, dose response, cytotoxicity control, plate reader, dry powder samples (AID 743046); type: functional, cell-based
[10] = inhibitors of CMV-promoter luciferase reporter, dose response, counter-screen for Pax8 inhibitor project, cell-based, HEK293, luminescence, dry powder (AID 743020); type: functional
[11] = NIH:OVCAR-3 ovarian cancer cell cytotoxicity, dose response, PAX8 inhibitor project, plate reader, dry powder samples (AID 743044); type: functional, cell-based
[12] = IGROV1 ovarian cancer cell cytotoxicity, dose response, PAX8 inhibitor project, plate reader, dry powder samples (AID 743043); type: functional, cell-based; settings: IGROV-1
[13] = cytotoxicity in OVCAR8 ovarian cancer cells, dose response, PAX8 project, cell-based, plate reader, dry powder samples (AID 743197); type: functional; settings: OVCAR-8
[14] = Late stage counterscreen for inhibitors of Trypanosoma brucei methionyl tRNA synthetase (MetRS): Luminescence-based cell-based high throughput dose response assay to identify compounds that are cytotoxic to Jurkat human T lymphocyte cells.; type: functional

c1ccc(-c2nc(NCc3ccco3)c3ccccc3n2)nc1
EC50 [1]: 3.14 µM (active) | EC50 (Streptokinase A): > 150 µM (not active) | EC50 (Streptococcus): 12.1 µM (active) | EC50 [2]: 0.335 µM (active) | IC50 (Nonstructural protein 1): 14.5 µM (active) | AC50 (INS1): 3.41 µM (active) | IC50 [3]: 8.96 µM (active)

Cc1cccc(-c2noc(CN(C(=O)C(c3ccccc3)c3ccccc3)C(C)C)n2)c1
EC50 [4]: 6.72 µM (active) | AC50 [5]: 6.27 µM (active) | AC50 [6]: 12.3 µM (active)

CCCCN=C(S)NNC(=O)c1csc(C)c1
IC50 [7]: > 122 µM (inactive) | IC50 [8]: > 122 µM (inactive)

COc1ccc2c3c(n(C)c2c1)[C@H](CO)N(Cc1ccccc1)CC31CCN(S(=O)(=O)c2ccc(C)cc2)CC1
AC50 (Paired box protein Pax-8): 6.41 µM (active) | AC50 [9]: 17.4 µM (active) | AC50 [10]: 14.3 µM (active) | AC50 [11]: 17.8 µM (active) | AC50 [12]: 51.1 µM (active) | AC50 [13]: 13.2 µM (active)

C[C@H]1CN([C@@H](C)CO)C(=O)Cc2cc(NC(=O)Nc3ccc4c(c3)OCO4)ccc2O[C@@H]1CN(C)CC1CCCCC1
AC50 (Paired box protein Pax-8): 31.2 µM (active) | AC50 [9]: 22.2 µM (active) | AC50 [13]: 62.9 µM (active)

CCO[C@@H]1OC(C(=O)NCc2nc3ccccc3[nH]2)=C[C@H](c2ccc(Br)cc2)[C@H]1CCCO
IC50 [14]: 45.4 µM (inactive)
